Results reported in BindingDB's records for patent US10844032 (Vanderbilt University, 2020).
pKi: −log10 of the molar value.

Biological target: T1, Induced myeloid leukemia cell differentiation protein Mcl-1 [172-327] (Homo sapiens, UniProt Q07820)
T1 construct: 172-327
Experiment: Binding Assay

T1 sequence (Q07820 172-327): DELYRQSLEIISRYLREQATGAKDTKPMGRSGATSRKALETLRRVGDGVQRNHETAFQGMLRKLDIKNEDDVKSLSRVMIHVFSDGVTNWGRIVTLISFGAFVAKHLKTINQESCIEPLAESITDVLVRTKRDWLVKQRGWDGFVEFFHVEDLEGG

Row | pKi | Structure (SMILES)
1 | > 7.00 | Cc1cc(OCCCc2c(C(=O)NS(=O)(=O)c3ccccc3)[nH]c3c(-c4c(COc5cccnc5)nn(C)c4C)cccc23)cc(C)c1Cl [US10844032, Example 307]
2 | > 7.00 | Cc1cc(OCCCc2c(C(=O)NS(=O)(=O)c3ccccc3)[nH]c3c(-c4c(COc5ccccn5)nn(C)c4C)cccc23)cc(C)c1Cl [US10844032, Example 306]
